Data set [1] relates to Aβ42. Briefly: Screening for γ-secretase-modulating activity in SKNBE2 cells carrying APP 695 wild type: Aβ42 in cell supernatant (Alphalisa). The format is cell-based. To be noted: overnight incubation. As for the experimental part:
(§1) Pharmacology A) Screening of the Compounds of the Invention for γ-Secretase-Modulating Activity
(§2) Screening was carried out using SKNBE2 cells carrying the APP 695—wild type, grown in Dulbecco's Modified Eagle's Medium/Nutrient mixture F-12 (DMEM/NUT-mix F-12) (HAM) provided by Invitrogen (cat no. 10371-029) containing 5% Serum/Fe supplemented with 1% non-essential amino acids, 1-glutamine 2 mM, Hepes 15 mM, penicillin 50 U/ml (units/ml) en streptomycin 50 μg/ml. Cells were grown to near confluency.
(§3) The screening was performed using a modification of the assay as described in Citron et al (1997) Nature Medicine 3: 67. Briefly, cells were plated in a 384-well plate at 10^4 cells/well in Ultraculture (Lonza, BE12-725F) supplemented with 1% glutamine (Invitrogen, 25030-024), 1% non-essential amino acid (NEAA), penicillin 50 U/ml en streptomycin 50 μg/ml in the presence of test compound at different test concentrations. The cell/compound mixture was incubated overnight at 37° C., 5% CO2. The next day the media were assayed by two sandwich immuno-assays, for Aβ42 and Aβtotal.
(§4) Aβtotal and Aβ42 concentrations were quantified in the cell supernatant using the Aphalisa technology (Perkin Elmer). Alphalisa is a sandwich assay using biotinylated antibody attached to streptavidin coated donorbeads and antibody conjugated to acceptor beads. In the presence of antigen, the beads come into close proximity. The excitation of the donor beads provokes the release of singlet oxygen molecules that trigger a cascade of energy transfer in the acceptor beads, resulting in light emission. To quantify the amount of Aβ42 in the cell supernatant, monoclonal antibody specific to the C-terminus of Aβ42 (JRF/cAβ42/26) was coupled to the receptor beads and biotinylated antibody specific to the N-terminus of Aβ (JRF/AβN/25) was used to react with the donor beads. T quantify the amount of Aβtotal in the cell supernatant, monoclonal antibody specific to the N-terminus of Aβ (JRF/AβN/25) was coupled to the receptor beads and biotinylated antibody specific to the mid region of Aβ (biotinylated 4G8) was used to react with the donor beads.
(§5) To obtain the values reported in Table 3, the data are calculated as percentage of the maximum amount of amyloid Beta 42 measured in the absence of the test compound. The sigmoidal dose response curves were analyzed using non-linear regression analysis with percentage of the control plotted against the log concentration of the compound. A 4-parameter equation was used to determine the IC50.

Data set [2] relates to Aβtotal. Briefly: Screening for γ-secretase-modulating activity in SKNBE2 cells carrying APP 695 wild type: Aβtotal in cell supernatant (Alphalisa). It is filed as cell-based. As to conditions: overnight incubation. The protocol: as §1, §2, §3, §4, §5
Setting [3] is: Homo sapiens, SKNBE2, SKNBE2 cells carrying APP 695 wild type.
The mark [4] stands for this setting: SKNBE2 cells carrying APP 695 wild type.

Where a name gives a salt, the structure may show the parent alone.

As to `COc1cc(Nc2nc3n(n2)CCC(C)C3c2ccc(F)cc2)ccc1-c1ccnc(C)c1` (racemic) [Compound 101, 8-(4-fluorophenyl)-5,6,7,8-tetrahydro-N-[3-methoxy-4-(2-methyl-4-pyridinyl)phenyl]-7-methyl-[1,2,4]triazolo[1,5-a]pyridin-2-amine], the melting point came to 122.1 °C. Moreover, half-maximal inhibition in data set [1] (setting [3]) (IC50) required 44 nM. The IC50 in data set [2] (Homo sapiens) was > 10000 nM.

In the case of `COc1cc(Nc2nc3n(n2)CCCC3c2ccc(F)cc2)ccc1-c1ccnc(C)c1` (stereo not drawn) [Compound 1, 8-(4-fluorophenyl)-5,6,7,8-tetrahydro-N-[3-methoxy-4-(2-methyl-4-pyridinyl)phenyl]-[1,2,4]triazolo[1,5-a]pyridin-2-amine], the melting point came to 207.1 °C. The same molecule had an IC50 in data set [1] (setting [3]) of 16 nM. The molecule also gave a half-inhibitory concentration (IC50) in data set [2] (Homo sapiens) of 7760 nM.

As to `COc1cc(Nc2nc3c(-c4ccccc4Cl)cccn3n2)ccc1-c1ccnc(C)c1` [Compound 2, 8-(2-chlorophenyl)-N-[3-methoxy-4-(2-methyl-4-pyridinyl)phenyl]-[1,2,4]triazolo[1,5-a]pyridin-2-amine], the melting point was determined as 186.7 °C. In data set [1] (setting [3]), this molecule registered an IC50 of 7 nM. Further, the IC50 in data set [2] (Homo sapiens) is > 10000 nM.

Take `COc1cc(Nc2nc3c(-c4ccc(F)cc4C(F)(F)F)cccn3n2)ccc1-n1cnc(C)c1` [Compound 6, 8-[4-fluoro-2-(trifluoromethyl)phenyl]-N-[3-methoxy-4-(4-methyl-1H-imidazol-1-yl)phenyl]-[1,2,4]triazolo[1,5-a]pyridin-2-amine]: the melting point worked out at 238.4 °C. This molecule also yielded an IC50 in data set [1] (setting [3]) of 7 nM. The molecule further displayed an IC50 in data set [2] (Homo sapiens) of 7410 nM.

In turn, `COc1cc(Nc2nc3c(-c4ccccc4Cl)cccn3n2)ccc1-n1cnc(C)c1` [Compound 7, 8-(2-chlorophenyl)-N-[3-methoxy-4-(4-methyl-1H-imidazol-1-yl)phenyl]-[1,2,4]triazolo[1,5-a]pyridin-2-amine] yielded a melting point of 235 °C. In data set [1] (setting [3]), the IC50 worked out at 7 nM. Besides, the IC50 in data set [2] (Homo sapiens) was > 10000 nM.

Molecule `COc1cc(Nc2nc3c(-c4ccccc4C(F)(F)F)nccn3n2)ccc1-n1cnc(C)c1` [Compound 8, N-[3-methoxy-4-(4-methyl-1H-imidazol-1-yl)phenyl]-8-[2-(trifluoromethyl)phenyl]-[1,2,4]triazolo[1,5-a]pyrazin-2-amine] came in with a melting point of 206.9 °C. In data set [1] (setting [3]), this molecule yielded an IC50 of 32 nM. This molecule gave a half-inhibitory concentration (IC50) in data set [2] (Homo sapiens) of 7590 nM.

Molecule `COc1cc(Nc2nc3n(n2)CCNC3c2ccccc2C(F)(F)F)ccc1-n1cnc(C)c1` (stereo not drawn) [Compound 9, 5,6,7,8-tetrahydro-N-[3-methoxy-4-(4-methyl-1H-imidazol-1-yl)phenyl]-8-[2-(trifluoromethyl)phenyl]-[1,2,4]triazolo[1,5-a]pyrazin-2-amine] showed a melting point of 248 °C. Further, in data set [1] (setting [3]), the midpoint of inhibition, the IC50, lay at 65 nM. Further, the IC50 in data set [2] (Homo sapiens) was > 10000 nM.

As for `COc1nc(Nc2nc3c(-c4ccc(F)cc4C)nccn3n2)ccc1-n1cnc(C)c1` [Compound 11, 8-(4-fluoro-2-methylphenyl)-N-[6-methoxy-5-(4-methyl-1H-imidazol-1-yl)-2-pyridinyl]-[1,2,4]triazolo[1,5-a]pyrazin-2-amine], the melting point stood at 278.9 °C.

For `COc1nc(Nc2nc3c(-c4ccc(F)cc4C)nccn3n2)ccc1-c1ccnc(C)c1` [Compound 12, 8-(4-fluoro-2-methylphenyl)-N-(2-methoxy-2′-methyl[3,4′-bipyridin]-6-yl)-[1,2,4]triazolo[1,5-a]pyrazin-2-amine], the melting point was 268.2 °C.

`COc1cc(Nc2nc3n(n2)CCCC3c2ccccc2C(F)(F)F)ccc1-n1cnc(C)n1` (stereo not drawn) [Compound 15, 5,6,7,8-tetrahydro-N-[3-methoxy-4-(3-methyl-1H-1,2,4-triazol-1-yl)phenyl]-8-[2-(trifluoromethyl)phenyl]-[1,2,4]triazolo[1,5-a]pyridin-2-amine]: the melting point was found to be 233.2 °C. Moreover, the IC50 in data set [1] (setting [3]) was 79 nM. Also, the IC50 in data set [2] (Homo sapiens) is > 10000 nM.

For `COc1cc(Nc2nc3c(-c4cccc(C(F)(F)F)c4)cccn3n2)ccc1-n1cnc(C)c1` [Compound 20, N-[3-methoxy-4-(4-methyl-1H-imidazol-1-yl)phenyl]-8-[3-(trifluoromethyl)phenyl]-[1,2,4]triazolo[1,5-a]pyridin-2-amine], the melting point turned out to be 175 °C. 5 nM corresponded to half-maximal inhibition in data set [1] (setting [3]) (IC50). Besides, the IC50 in data set [2] (Homo sapiens) turned out to be 5890 nM.

Consider `COc1cc(Nc2nc3n(n2)CCCC3c2ccc(C(F)(F)F)cc2)ccc1-c1ccnc(C)c1` (stereo not drawn) [Compound 89, 5,6,7,8-tetrahydro-N-[3-methoxy-4-(2-methyl-4-pyridinyl)phenyl]-8-[4-(trifluoromethyl)phenyl]-[1,2,4]triazolo[1,5-a]pyridin-2-amine], for which the IC50 turned out to be 32 nM in data set [1] (setting [3]) and 9120 nM in data set [2] (Homo sapiens).

Regarding `Cc1cc(-c2ccc(Nc3nc4n(n3)CCC[C@@H]4c3ccc(F)cc3C)cc2)ccn1` [Compound 93, (8R)-8-(4-fluoro-2-methylphenyl)-5,6,7,8-tetrahydro-N-[4-(2-methyl-4-pyridinyl)phenyl]-[1,2,4]triazolo[1,5-a]pyridin-2-amine], the figures for the IC50 in data set [1] (setting [3]) and in data set [2] (Homo sapiens) were 43 nM and > 10000 nM, respectively.

As for `Cc1cc(-c2ccc(Nc3nc4n(n3)CCC[C@H]4c3ccc(F)cc3C)cc2)ccn1` [Compound 94, (8S)-8-(4-fluoro-2-methylphenyl)-5,6,7,8-tetrahydro-N-[4-(2-methyl-4-pyridinyl)phenyl]-[1,2,4]triazolo[1,5-a]pyridin-2-amine], the IC50 in data set [1] (setting [3]) was 56 nM; in data set [2] (Homo sapiens), > 10000 nM.

For `COc1ccc(C2CCCn3nc(Nc4ccc(-c5ccnc(C)c5)c(OC)c4)nc32)cc1F` (stereo not drawn) [Compound 104, 8-(3-fluoro-4-methoxyphenyl)-5,6,7,8-tetrahydro-N-[3-methoxy-4-(2-methyl-4-pyridinyl)phenyl]-[1,2,4]triazolo[1,5-a]pyridin-2-amine.1.3HCl.2.3H2O], the figures for the IC50 in data set [1] (setting [4]) and in data set [2] were 56 nM and > 10000 nM, respectively.

For the molecule `COc1cc(Nc2nc3n(n2)CCCC3c2cccc(N(C)C)c2)ccc1-c1ccnc(C)c1` (stereo not drawn) [Compound 111, 8-[3-(dimethylamino)phenyl]-5,6,7,8-tetrahydro-N-[3-methoxy-4-(2-methyl-4-pyridinyl)phenyl]-[1,2,4]triazolo[1,5-a]pyridin-2-amine], the IC50 in data set [1] (setting [3]) is 56 nM; in data set [2] (Homo sapiens), > 10000 nM.

In the case of `COc1cc(F)cc(C2CCCn3nc(Nc4ccc(-c5ccnc(C)c5)c(OC)c4)nc32)c1` (stereo not drawn) [Compound 115, 8-(3-fluoro-5-methoxyphenyl)-5,6,7,8-tetrahydro-N-[3-methoxy-4-(2-methyl-4-pyridinyl)phenyl]-[1,2,4]triazolo[1,5-a]pyridin-2-amine], the half-maximal inhibitory concentration (IC50) in data set [1] (setting [3]) was 41 nM; in data set [2] (Homo sapiens), > 10000 nM.

In the case of `Cc1cc(-c2ccc(Nc3nc4n(n3)CCCC4c3cc(C(F)(F)F)ccc3C)cc2)ccn1` (stereo not drawn) [Compound 144, 5,6,7,8-tetrahydro-N-[4-(2-methyl-4-pyridinyl)phenyl]-8-[2-methyl-5-(trifluoromethyl)phenyl]-[1,2,4]triazolo[1,5-a]pyridin-2-amine], the IC50 was 28 nM in data set [1] (setting [3]) and > 10000 nM in data set [2] (Homo sapiens).

Consider `COc1ccc(F)c(C2CCCn3nc(Nc4ccc(-c5ccnc(C)c5)c(OC)c4)nc32)c1` (stereo not drawn) [Compound 172, 8-(2-fluoro-5-methoxyphenyl)-5,6,7,8-tetrahydro-N-[3-methoxy-4-(2-methyl-4-pyridinyl)phenyl]-[1,2,4]triazolo[1,5-a]pyridin-2-amine.1.7HCl], for which the values for the IC50 in data set [1] (setting [4]) and in data set [2] were 38 nM and > 10000 nM, respectively.

As for `COc1cc(Nc2nc3c(N4CCCC(C(F)(F)F)C4)cccn3n2)ccc1-c1ccnc(C)c1` (stereo not drawn) [Compound 181, N-[3-methoxy-4-(2-methyl-4-pyridinyl)phenyl]-8-[3-(trifluoromethyl)-1-piperidinyl]-[1,2,4]triazolo[1,5-a]pyridin-2-amine.1.5HCl.1.7H2O], the IC50 stood at 16 nM in data set [1] (setting [3]) and 3980 nM in data set [2] (Homo sapiens).

For `COc1nc(Nc2nc3c(-c4ccc(F)cc4C)nccn3n2)ccc1-n1cnc(C)c1` [Compound 186, 8-(4-fluoro-2-methylphenyl)-N-[6-methoxy-5-(4-methyl-1H-imidazol-1-yl)-2-pyridinyl]-[1,2,4]triazolo[1,5-a]pyrazin-2-amine.HCl], the IC50 in data set [1] (setting [4]) is 1100 nM; in data set [2], > 10000 nM.

For the molecule `COc1nc(Nc2nc3c(-c4ccc(F)cc4C)nccn3n2)ccc1-c1ccnc(C)c1` [Compound 187, 8-(4-fluoro-2-methylphenyl)-N-(2-methoxy-2′-methyl[3,4′-bipyridin]-6-yl)-[1,2,4]triazolo[1,5-a]pyrazin-2-amine.HCl], the half-maximal inhibitory concentration (IC50) in data set [1] (setting [4]) is 1620 nM; in data set [2], > 10000 nM.
